Data as given in patent US20050203065A1, “Method of treating ischemia reperfusion injury using adenosine receptor antagonists” (priority 2002, published 2005).
Read-outs that look alike come from different tables or passages of the source.

Experiments:
[1] = test system: open-chest, barbital-anesthetized dogs; assay: Protocol II (preconditioning): four 5-minute occlusion/reperfusion cycles before 60-minute occlusion and 3 hours reperfusion in dogs; format: in vivo, dog; details: for Effect on the protective effects of ischemic preconditioning: 1 mg/kg i.v. bolus + 10 μg/kg/min
Experimental: Preconditioning was elicited by four 5-minute occlusion/5-minute reperfusion cycles produced 10 minutes before the 60-minute occlusion.

[2] = test system: open-chest, barbital-anesthetized dogs; assay: Protocol III (reperfusion): 60 minutes occlusion and 3 hours reperfusion, drug from 10 minutes before release of occlusion, dogs; format: in vivo, dog; details: for Infarct size expressed as a percentage of the risk region, in words: administration during the early phase of reperfusion
Experimental: (§2) The studies were performed in open-chest, barbital-anesthetized dogs instrumented to measure heart rate, blood pressure, left ventricular pressure, and regional myocardial blood flow (radioactive microspheres). A mechanical occluder was placed around a proximal portion of the left anterior descending coronary artery to produce ischemia and reperfusion. At the end of the experiments, infarct size was determined-by histochemical staining (patent blue dye and triphenyltetrazolium) and expressed as a percentage of the region at risk or as a percentage of the entire left ventricle.
In the reperfusion protocol (see FIG. 3, protocol III), the dogs were subjected to 60 minutes of coronary artery occlusion followed by three hours of reperfusion. […] The antagonists were administered at a dose of 1 mg/kg i.v. bolus followed by an infusion of 10 μg/kg/min for one hour.

[3] = molecular target: T1, recombinant canine A1 adenosine receptors (Canis lupus familiaris, UniProt P11616); assay: Radioligand competition binding, canine A1 receptor (3H-CPX), transfected HEK 293 membranes
T1 construct: expressed in transfected cells
T1 sequence (P11616 1-326): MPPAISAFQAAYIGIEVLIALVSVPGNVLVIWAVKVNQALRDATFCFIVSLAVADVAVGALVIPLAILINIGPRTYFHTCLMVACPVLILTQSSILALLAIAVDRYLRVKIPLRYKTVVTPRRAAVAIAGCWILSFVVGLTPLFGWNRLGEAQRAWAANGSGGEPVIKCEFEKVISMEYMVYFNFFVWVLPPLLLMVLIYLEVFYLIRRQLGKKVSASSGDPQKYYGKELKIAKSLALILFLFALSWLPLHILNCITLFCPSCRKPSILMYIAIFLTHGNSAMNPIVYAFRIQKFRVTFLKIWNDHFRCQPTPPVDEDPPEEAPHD
Experimental: (§1) Membranes (40-70 μg membrane protein), radioligands, and varying concentrations of competing ligands were incubated in triplicate in 0.1 ml buffer HE plus 2 units/mL adenosine deaminase for 2.5 hours at 21° C. The radioligands used for competitive binding assays were: [^3H]-8-cyclopentyl-1,3-dipropyxanthine ([^3H]-DPCPX) (NEN, Boston, Mass.) for A1 and A2b adenosine receptors, [^3H]-4-(2-[7-amino-2-(furyl)(1,2,4)triazole(2,3-a)(1,3,5)triazin-5-ylaminoethyly)phenol ([^3H] ZM241385) for A2a adenosine receptors (Tocris, Bristol, UK), and [^125Iodine]-labeled N6-(4-aminobenzyl)-9-(5-(methylcarbonyl)-β-D-ribofuranosyl) adenine ([^125I]-AB-MECA) or [^3H]-R-N^6-phenylisopropyladenosine (H^3R]-R-PIA) for A3 adenosine receptors (both from NEN, Boston, Mass.). Nonspecific binding was measured in the presence of 10 μM 5′N ethylcarboxamidoadenosine (NECA, from RBI-Sigma, Natick, Mass.) for A1 and A2b receptors, or 10 μM xanthine amino congener (XAC, from RBI-Sigma, Natick, Mass.) for A2a receptors. Binding assays were terminated by filtration over Whatman GF/C glass fiber filters using a BRANDEL cell harvester (Gaithersburg, Md.).

[4] = molecular target: T2, recombinant canine A2a adenosine receptors (Canis lupus familiaris, UniProt P11617); assay: Radioligand competition binding, canine A2a receptor (3H-ZM 241385), transfected HEK 293 membranes
T2 construct: expressed in transfected cells
T2 sequence (P11617 whole entry): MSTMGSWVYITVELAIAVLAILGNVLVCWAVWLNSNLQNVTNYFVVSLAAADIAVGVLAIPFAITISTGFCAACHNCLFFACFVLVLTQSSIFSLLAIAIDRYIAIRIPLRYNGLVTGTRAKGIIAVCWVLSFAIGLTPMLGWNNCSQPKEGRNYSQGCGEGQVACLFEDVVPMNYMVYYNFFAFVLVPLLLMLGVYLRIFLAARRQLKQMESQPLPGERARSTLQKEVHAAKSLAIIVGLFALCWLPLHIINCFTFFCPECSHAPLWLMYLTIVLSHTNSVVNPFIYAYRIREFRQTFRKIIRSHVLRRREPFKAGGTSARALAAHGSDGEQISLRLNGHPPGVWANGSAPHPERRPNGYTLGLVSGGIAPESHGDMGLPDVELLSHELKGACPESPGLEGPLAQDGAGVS
Experimental: Membranes (40-70 μg membrane protein), radioligands, and varying concentrations of competing ligands were incubated in triplicate in 0.1 ml buffer HE plus 2 units/mL adenosine deaminase for 2.5 hours at 21° C. […] Nonspecific binding was measured in the presence of 10 μM 5′N ethylcarboxamidoadenosine (NECA, from RBI-Sigma, Natick, Mass.) for A1 and A2b receptors, or 10 μM xanthine amino congener (XAC, from RBI-Sigma, Natick, Mass.) for A2a receptors. Binding assays were terminated by filtration over Whatman GF/C glass fiber filters using a BRANDEL cell harvester (Gaithersburg, Md.).

[5] = molecular target: T3, recombinant canine A3 adenosine receptors (Canis lupus familiaris, UniProt Q28309); assay: Radioligand competition binding, canine A3 receptor (R-PIA), transfected HEK 293 membranes; details: mean ± SEM, n = 3
T3 construct: expressed in transfected cells
T3 sequence (Q28309 1-314): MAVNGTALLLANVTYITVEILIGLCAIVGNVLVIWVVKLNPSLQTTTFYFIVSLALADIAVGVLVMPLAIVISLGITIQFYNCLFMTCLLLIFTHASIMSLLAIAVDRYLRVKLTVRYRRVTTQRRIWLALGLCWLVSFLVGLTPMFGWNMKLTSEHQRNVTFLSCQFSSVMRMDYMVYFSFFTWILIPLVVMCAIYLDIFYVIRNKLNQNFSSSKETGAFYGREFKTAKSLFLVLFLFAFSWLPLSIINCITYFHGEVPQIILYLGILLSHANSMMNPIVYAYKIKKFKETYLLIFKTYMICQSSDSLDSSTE
Experimental: as §1, with “Md.). The-filters were rinsed three times with 3-4 mL ice-cold 10 mM Tris-HCl, pH 7.4 and 5 mM magnesium chloride (MgCl2) at 4° C., and were counted in a Wallac β-counter (Perkin Elmer, Boston, Mass.).” for “Md.).”

[6] = molecular target: T4, recombinant human A3 adenosine receptors (Homo sapiens, UniProt P0DMS8); assay: Radioligand binding, human A3 receptor ([125I]-AB-MECA), incl. one-point binding at 10 μM; details: read-out: Percent (%) Inhibition at 10 μM Antagonist, A3
T4 construct: expressed in transfected cells; host or cells: HEK 293
T4 sequence (P0DMS8 1-318): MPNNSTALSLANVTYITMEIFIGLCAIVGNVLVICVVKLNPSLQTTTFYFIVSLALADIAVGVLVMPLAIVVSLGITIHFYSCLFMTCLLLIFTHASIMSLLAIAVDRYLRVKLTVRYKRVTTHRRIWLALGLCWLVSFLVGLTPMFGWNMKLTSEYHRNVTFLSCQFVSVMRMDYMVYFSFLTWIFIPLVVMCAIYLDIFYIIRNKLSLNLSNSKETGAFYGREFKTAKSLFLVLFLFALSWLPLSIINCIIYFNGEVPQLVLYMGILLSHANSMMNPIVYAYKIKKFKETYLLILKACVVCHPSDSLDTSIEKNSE

[7] = test system: open-chest, barbital-anesthetized dogs; assay: Protocol I (pretreatment): 60 minutes of coronary artery occlusion and 3 hours of reperfusion in dogs
Experimental: as §2
In the pretreatment protocol (see FIG. 1, protocol I), the dogs were subjected to 60 minutes of coronary artery occlusion and 3 hours or reperfusion after which the hearts were removed and infarct size was assessed. […] All of the antagonists were administered at a dose of 1 mg/kg as an i.v. bolus followed by and infusion of 10 μg/kg/min continued until immediately before reperfusion (70 minutes total).

| Compound | Effect on the protective effects of ischemic preconditioning ([1]; Protocol II) | Infarct size expressed as a percentage of the risk region, in words [2] | Ki ([3]; canine, mean ± SEM, n = 3, 3H-CPX, read-out: Ki, A1) | Ki ([4]; canine, mean ± SEM, n = 3, 3H-ZM 241385, read-out: Ki, A2a) | Ki [5] | inhibition at 10 µM [6] | Relationship between infarct size and transmural collateral blood flow compared to control group [7] | Addition to the protective effect of ischemic preconditioning ([1]; Protocol II) | Relationship between infarct size and collateral blood flow compared to preconditioned control ([1]; Protocol II (preconditioning)) | Infarct size expressed as a percentage of the entire left ventricle, in words [2] | Relationship between infarct size and collateral blood flow compared to control group [2] | Reduction in infarct size (percentage of the risk region) ([2]; 1 mg/kg i.v. bolus + 10 μg/kg/min for one hour from 10 minutes before release of occlusion) | Ki [3] | Ki [4] | Infarct size (percentage of risk region or of left ventricle) compared with control, in words ([7]; 1 mg/kg i.v. bolus + 10 μg/kg/min from 10 minutes before occlusion) | Infarct size reduction ([7]; 1 mg/kg i.v. bolus + 10 μg/kg/min from 10 minutes before occlusion, vs control) |
| --- | --- | --- | --- | --- | --- | --- | --- | --- | --- | --- | --- | --- | --- | --- | --- | --- |
| CCCn1c(=O)c2[nH]c([C@H]3C[C@@H]4C[C@H]3[C@H]3O[C@@H]43)nc2n(CCC)c1=O [BG 9719, 8-(2S-5,6-exo-epoxy-endo-norborn-2-yl)-1,3-dipropyl-3,7-dihydro-purine-2,6-dione] | did not block | no protective effect | 35.8 ± 4 nM | 2820 nM | 19100 nM | 40.6% | similar |  |  |  |  |  |  |  |  |  |
| CCCn1c(=O)c2[nH]c(C3CCCC3)nc2n(CCC)c1=O [CPX, 8-Cyclopentyl-1,3-dipropyl-3,7-dihydro-purine-2,6-dione] | did not block | reduced significantly |  |  | 1960 nM |  | shifted downward | added to the protective effect | shifted downward further | a significant reduction in infarct size was not observed | shifted downward | 42% | 18.1 ± 4.4 nM | 162 ± 22 nM | significantly smaller | 51% |
